Drawing on the METLIN SMRT retention time set (Domingo-Almenara et al. 2019), this text covers RP-LC retention time for 31 molecules.

The data set can be described thus: gradient 5% acetonitrile 3 min, to 50% in 2 min, to 85% in 15 min, held 3 min, 100 µL/min. As to conditions: column: Zorbax Extend-C18 2.1 x 50 mm; eluents: water / acetonitrile, 0.1% formic acid. The procedure, abridged: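 Standards, all pure, were combined into mixtures of ~100 molecules and run at 100 μL/min on a Zorbax Extend-C18 column (2.1 × 50 mm, 1.8 μm) with water and acetonitrile, each containing 0.1% formic acid. A coupled quadrupole time-of-flight mass spectrometer operated in positive and negative ionization mode. Retention time values come from computationally picked adduct peaks, each inspected manually.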
`COC(=O)c1sccc1NC(=O)N1CCCn2nc(-c3cccc(Cl)c3)cc2C1` displayed an RP-LC retention time of 972 s.

`CCc1nc(-c2csc(S(=O)(=O)N3CCCC(C(=O)Nc4cc(Cl)ccc4C)C3)c2)no1` (stereo unspecified) registered an RP-LC retention time of 1130 s. To `CCc1nc2ccccc2c(=O)n1Cc1noc(-c2cccc(N(C)C)c2)n1` belongs 998 s; to `O=C(CCc1nc2ccccc2n(CC(=O)Nc2cc(F)ccc2F)c1=O)NCc1ccccc1`, 884 s. `CCc1ccc(-c2cc3c(=O)n(CC(=O)NCC4CCCN4CC)ncn3n2)cc1` (stereo unspecified) showed an RP-LC retention time of 689 s. The value for `Cc1noc(C2(NC(=O)Cc3ccccc3C)CCCCC2)n1` was 884 s. In turn, `O=C(NCc1cccs1)C1CCCN(S(=O)(=O)c2c[nH]c(C(=O)N3CCCCCC3)c2)C1` (stereo unspecified) returned an RP-LC retention time of 812 s. To `CN1C(=O)NC2(CCN(S(=O)(=O)c3cccnc3)CC2)C1=O` belongs 589 s; to `Cc1ccc(-c2nnc(-c3nn(C)c4c3CN(S(=O)(=O)c3ccc5c(c3)OCCO5)CC4)o2)cc1`, 975 s. The value for `O=C(c1cccc(F)c1)N1CCC(n2c(-c3ccoc3)nc3cccnc32)C1` (stereo unspecified) was 735 s; that for `CN(C)c1ccc(C(CNC(=O)c2ccco2)N2CCc3ccccc3C2)cc1` (stereo unspecified) was 582 s; that for `COCCNc1c(-c2ccccc2)nc2sc(C(=O)N3CCCC3)c(C)n12` was 922 s.

The molecule `O=S1(=O)C[C@H](N2CCN(c3ncccn3)CC2)[C@@H](S(=O)(=O)c2cccs2)C1` registered an RP-LC retention time of 719 s. To `Cn1cc(-c2ccncc2)cc1C(=O)N1CCN(c2cccc(Cl)c2)CC1` belongs 679 s; to `CC1=NS(=O)(=O)c2cccnc2N1c1ccc(Br)cc1`, 836 s; to `CCn1nnc2cc(-c3noc(-c4cc(OC)c(OC)c(OC)c4)n3)ccc21`, 993 s. The value for `COc1ccc(N2CC(c3nc(-c4ccc(OC)c(OC)c4)no3)CC2=O)c(OC)c1` (stereo unspecified) was 743 s; that for `O=C(COc1ccccc1F)NCCn1nc(-c2ccco2)ccc1=O` was 675 s.

The molecule `CCc1nnc(-c2cc(C)n(CC(=O)Nc3ccc(OC)cc3)c2C)o1` returned an RP-LC retention time of 753 s. To `O=C(Cn1nc(Cc2cccnc2)c2ccccc2c1=O)N1CC=C(c2ccccc2)CC1` belongs 680 s. On to `Cc1ccc(NC(=O)C2CCN(C(=O)c3ncn4c3COC(c3ccc(F)cc3)C4)CC2)c(F)c1` (stereo unspecified), for which the RP-LC retention time was found to be 813 s.

Regarding `Cc1cc(C)n(Cc2nc(-c3ccc(NC(=O)Cc4ccccc4C)cc3)oc2C)n1`, the RP-LC retention time was 978 s. On to `O=C(NCc1csc(-c2cccs2)n1)C1CCN(C(=O)CCC2CCCC2)CC1`, for which the RP-LC retention time stood at 878 s. The value for `CCc1ccccc1NC(=O)C1CCN(S(=O)(=O)c2ccc3c(c2)NC(=O)C(C)O3)CC1` (stereo unspecified) was 838 s.

The molecule `CC(=O)N1CCc2cc(N3CC(C(=O)NCc4ccc(C(F)(F)F)cc4)CC3=O)ccc21` (stereo unspecified) yielded an RP-LC retention time of 748 s. `CC(=O)NCC(=O)N1CCCn2ccnc2C1C1CCCC1` (stereo unspecified): the RP-LC retention time came out at 625 s.

As to `COc1ccc(Cl)c2c(=O)c3c([nH]c12)CCN(CC(=O)NCc1ccc(Cl)cc1)C3`, the RP-LC retention time turned out to be 762 s. To `Cn1cc(C2=C(c3cn(CCCSC(=N)N)c4ccccc34)C(=O)NC2=O)c2ccccc21` belongs 767 s; to `Cc1nnsc1C(=O)Nc1nnc(SCC(=O)NCc2ccco2)s1`, 692 s; to `O=C(c1cccc(Br)c1)N1CCc2nc(-c3ccc(Cl)cc3)ncc2C1`, 1160 s. To `COc1ccccc1-c1nnc(-c2ccc(Cl)c(S(=O)(=O)N3CCOCC3)c2)o1` belongs 897 s.
